Reference: ChEMBL document CHEMBL5728503, “Second generation GRP94-selective inhibitors” (2021)
pKd: −log10 of the molar value.

These compounds were tested against Endoplasmin (Canis lupus familiaris, UniProt P41148) (assay: Fluorescence Polarization Assay: The assay was performed in 96-well black, flat-bottom plates with a final volume of 100 μL. 25 μL of assay buffer (20 mM HEPES, pH 7.3, 50 mM KCl, 5 mM MgCl2, 20 mM Na2MoO4, 2 mM DTT, 0.1 mg/mL BGG, and 0.01% NP-40) were added, followed by 25 μL of assay buffer containing 6 nM FITC-GDA (fluorescent tracer, stock in DMSO, diluted in assay buffer) and 50 μL of assay buffer containing 10 nM of either Grp94 or Hsp90α were added to each well. For each plate, wells containing buffer only (background), tracer in buffer only (low polarization control) and protein, tracer, and 1% DMSO (final concentration, high polarization control) were included. Compounds were then added with a final concentration of DMSO=1%. Plates were incubated at 4° C. with rocking for 24 h. […] Polarization values were correlated to % tracer bound and compound concentrations.).
Chain of Endoplasmin (P41148 whole entry): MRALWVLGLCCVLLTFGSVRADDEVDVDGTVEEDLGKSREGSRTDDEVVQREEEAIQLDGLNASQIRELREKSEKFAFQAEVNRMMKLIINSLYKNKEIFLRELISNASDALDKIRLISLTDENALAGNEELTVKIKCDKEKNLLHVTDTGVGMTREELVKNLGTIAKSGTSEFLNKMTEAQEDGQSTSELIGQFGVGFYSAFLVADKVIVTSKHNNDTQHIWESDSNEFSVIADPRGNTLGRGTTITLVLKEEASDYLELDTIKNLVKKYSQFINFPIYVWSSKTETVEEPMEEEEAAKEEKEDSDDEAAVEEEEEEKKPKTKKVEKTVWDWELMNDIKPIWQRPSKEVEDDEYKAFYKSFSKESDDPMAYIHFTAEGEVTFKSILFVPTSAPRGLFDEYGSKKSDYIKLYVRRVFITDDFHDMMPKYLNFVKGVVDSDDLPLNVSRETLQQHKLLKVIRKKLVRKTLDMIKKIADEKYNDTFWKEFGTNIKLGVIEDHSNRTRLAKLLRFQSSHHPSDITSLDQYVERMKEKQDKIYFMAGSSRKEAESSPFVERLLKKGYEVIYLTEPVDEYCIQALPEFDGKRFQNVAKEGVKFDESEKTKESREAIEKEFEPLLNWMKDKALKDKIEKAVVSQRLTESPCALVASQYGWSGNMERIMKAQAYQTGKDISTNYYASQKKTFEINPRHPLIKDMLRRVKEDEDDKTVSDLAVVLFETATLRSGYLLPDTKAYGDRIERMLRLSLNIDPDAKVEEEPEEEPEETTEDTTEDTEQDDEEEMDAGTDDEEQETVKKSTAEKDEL

| Structure (SMILES) | pKd |
| --- | --- |
| COC(=O)c1c(O)cc(O)c(Cl)c1CCc1ccc(OC)cc1Cc1ccccc1 | 6.17 |
| CCOc1ccccc1Cc1ccccc1CCc1c(Cl)c(O)cc(O)c1C(=O)OC | 5.21 |
| COC(=O)c1c(O)cc(O)c(Cl)c1CCc1ccccc1Cc1ccccc1Cl | 5.26 |
| COC(=O)c1c(O)cc(O)c(Cl)c1CCc1ccccc1Cc1cccc(Cl)c1 | 4.92 |
| COC(=O)c1c(O)cc(O)c(Cl)c1CCc1cccc(O)c1Cc1ccccc1 | 6.27 |
| COC(=O)c1c(O)cc(O)c(Cl)c1CCc1ccccc1Cc1ccc(Cl)cc1 | 5.38 |
| COC(=O)c1c(O)cc(O)c(Cl)c1CCc1cccc(OC)c1Cc1ccccc1 | 6.14 |
| COC(=O)c1c(O)cc(O)c(Cl)c1CCc1ccccc1Cc1ccccc1OC | 5.11 |
| COC(=O)c1c(O)cc(O)c(Cl)c1CCc1cccc(Cc2ccccc2)c1 | 4.98 |

Stronger by pKd, values ahead:

| pKd | Structure (SMILES) |
| --- | --- |
| 6.55 | COC(=O)c1c(O)cc(O)c(Cl)c1CCc1cc(N)ccc1Cc1ccccc1 |
| 6.48 | COC(=O)c1c(O)cc(O)c(Cl)c1CCc1ccc(O)cc1Cc1ccccc1 |
| 6.62 | COC(=O)c1c(O)cc(O)c(Cl)c1CCc1ccc(N)cc1Cc1ccccc1 |
| 6.35 | COC(=O)c1c(O)cc(O)c(Cl)c1CCc1cc(OC)ccc1Cc1ccccc1 |
